Results: ChEMBL document CHEMBL1201862, “PubChem BioAssay data set” (2004)
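Cells were grown in 96-well plates and exposed to each compound for 48 hours at five concentrations; endpoints were interpolated linearly between bracketing concentrations, or set to the highest concentration if not reached. At the GI50, growth is halved.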 The source made the active and inactive calls. No stated cut-off is given here; in the data, active = GI50 up to about 1.1 µM and inactive = higher.

How the values were obtained:
Experiment in all cases: NCI-60 cell line screen, 48 h
UACC-62 = system: UACC-62
MOLT-4 = system: MOLT-4
SNB-75 = system: SNB-75
TK-10 = system: TK-10
KM12 = system: KM12
SN12C = system: SN12C
NCI-H522 = system: NCI-H522
ACHN = system: ACHN
HOP-62 = system: HOP-62
RXF 393 = system: RXF 393
SK-MEL-2 = system: SK-MEL-2
SF-539 = system: SF-539
SNB-19 = system: SNB-19
SW-620 = system: SW-620
COLO 205 = system: COLO 205
Malme-3M = system: Malme-3M
UO-31 = system: UO-31
HT-29 = system: HT-29
OVCAR-8 = system: OVCAR-8
SK-MEL-5 = system: SK-MEL-5

Row | Compound | GI50 (UACC-62) | GI50 (MOLT-4) | GI50 (SNB-75) | GI50 (TK-10) | GI50 (KM12) | GI50 (SN12C) | GI50 (NCI-H522) | GI50 (ACHN) | GI50 (HOP-62) | GI50 (RXF 393) | GI50 (SK-MEL-2) | GI50 (SF-539) | GI50 (SNB-19) | GI50 (SW-620) | GI50 (COLO 205) | GI50 (Malme-3M) | GI50 (UO-31) | GI50 (HT-29) | GI50 (OVCAR-8) | GI50 (SK-MEL-5)
1 | CCC1(OC(=O)CN)C(=O)OCc2c1cc1n(c2=O)Cc2cc3ccccc3nc2-1 (centres undefined) | 0.01 µM (active) | 0.01 µM (active) | 0.0213 µM (active) | 0.516 µM (active) | 0.128 µM (active) | 0.0113 µM (active) | 0.0188 µM (active) | 0.01 µM (active) | 0.01 µM (active) | 0.0378 µM (active) | 0.0794 µM (active) | 0.01 µM (active) | 0.01 µM (active) | 0.067 µM (active) | 0.0491 µM (active) | 0.151 µM (active) | 0.0114 µM (active) |  |  | 
2 | O=C1CN2C(Cl)(Cl)C2(c2ccccc2)c2cc(Cl)ccc2N1CC1CC1 (centres undefined) |  | 24 µM (inactive) | 25.2 µM (inactive) | 33.8 µM (inactive) | 16.6 µM (inactive) | 20.8 µM (inactive) | 17.2 µM (inactive) | 23.8 µM (inactive) | 23.4 µM (inactive) | 18.7 µM (inactive) | 17.3 µM (inactive) |  |  | 29.6 µM (inactive) | 19.9 µM (inactive) | 17.3 µM (inactive) | 26 µM (inactive) | 17.3 µM (inactive) | 14.6 µM (inactive) | 20.2 µM (inactive)
3 | COc1ccc(C2N(NC(=O)c3ccncc3)C(=O)CS2(=O)=O)cc1F (centres undefined) |  | 14 µM (inactive) | 37.6 µM (inactive) | > 100 µM (inactive) | > 100 µM (inactive) | > 100 µM (inactive) | 92.3 µM (inactive) | > 100 µM (inactive) | > 100 µM (inactive) | > 100 µM (inactive) | > 100 µM (inactive) |  | > 100 µM (inactive) | > 100 µM (inactive) | > 100 µM (inactive) | > 100 µM (inactive) |  | > 100 µM (inactive) |  | > 100 µM (inactive)
4 | O=c1ccc2cc3ccc4cccc5ccc(c2o1)c3c45 | 47 µM (inactive) | > 100 µM (inactive) | 24.7 µM (inactive) | > 100 µM (inactive) |  | 25 µM (inactive) | 25.9 µM (inactive) | 12.5 µM (inactive) |  |  | > 100 µM (inactive) | 9.64 µM (inactive) | 37.3 µM (inactive) | 31.8 µM (inactive) | > 100 µM (inactive) | > 100 µM (inactive) | 14.3 µM (inactive) | 22.2 µM (inactive) | 23.2 µM (inactive) | 40.4 µM (inactive)
5 | COc1ccc(C(CC(=O)c2ccc(O)cc2)C(C(=O)c2ccc(O)cc2)C(c2ccc(OC)cc2)C2C(=O)NC(=S)NC2=O)cc1 (centres undefined) | 17.7 µM (inactive) | 37.7 µM (inactive) | 25.8 µM (inactive) | 29.3 µM (inactive) | 16.6 µM (inactive) | 24.7 µM (inactive) | 14.9 µM (inactive) | 19.7 µM (inactive) | 26.1 µM (inactive) |  | 29.8 µM (inactive) |  | 21.8 µM (inactive) | 23.1 µM (inactive) | 16 µM (inactive) |  | 17.5 µM (inactive) | 27 µM (inactive) | 24.8 µM (inactive) | 21.5 µM (inactive)
6 | Cc1ccc(CCC(=O)C(=O)O)s1 | 19.4 µM (inactive) | > 100 µM (inactive) | > 100 µM (inactive) | 78.7 µM (inactive) | > 100 µM (inactive) | > 100 µM (inactive) | > 100 µM (inactive) | > 100 µM (inactive) | > 100 µM (inactive) |  | > 100 µM (inactive) | > 100 µM (inactive) | > 100 µM (inactive) | > 100 µM (inactive) | > 100 µM (inactive) | > 100 µM (inactive) | > 100 µM (inactive) | > 100 µM (inactive) | > 100 µM (inactive) | > 100 µM (inactive)
7 | CC(C)OP(=O)(OC(C)C)c1nn(-c2ccc([N+](=O)[O-])cc2)c(=N)s1 | > 100 µM (inactive) | 75.9 µM (inactive) | 15 µM (inactive) | > 100 µM (inactive) | > 100 µM (inactive) | > 100 µM (inactive) | 47.2 µM (inactive) | 80.5 µM (inactive) | > 100 µM (inactive) |  |  | > 100 µM (inactive) | > 100 µM (inactive) | > 100 µM (inactive) | > 100 µM (inactive) | > 100 µM (inactive) | 60.4 µM (inactive) | > 100 µM (inactive) | > 100 µM (inactive) | 69.5 µM (inactive)
8 | NC1CCCCC1 | 255 µM (inactive) | 195 µM (inactive) | 264 µM (inactive) |  | 211 µM (inactive) | > 562 µM (inactive) | 344 µM (inactive) |  | 223 µM (inactive) | 347 µM (inactive) | 169 µM (inactive) | 164 µM (inactive) | 187 µM (inactive) | 419 µM (inactive) | > 56.2 µM (inactive) | > 562 µM (inactive) |  | 199 µM (inactive) | 397 µM (inactive) | 283 µM (inactive)
9 | O=C(N/N=C/C=C/c1ccccc1)[C@H](O)[C@@H](O)C(=O)N/N=C/C=C/c1ccccc1 | > 100 µM (inactive) | > 100 µM (inactive) |  | > 100 µM (inactive) | > 100 µM (inactive) | > 100 µM (inactive) | > 100 µM (inactive) | > 100 µM (inactive) |  | > 100 µM (inactive) | > 100 µM (inactive) | > 100 µM (inactive) | > 100 µM (inactive) | > 100 µM (inactive) | > 100 µM (inactive) | > 100 µM (inactive) | > 100 µM (inactive) |  | > 100 µM (inactive) | > 100 µM (inactive)
10 | CO[C@H]1C=C[C@@]23c4cc5c(cc4CO[C@]2(O)CN(C)[C@H]3C1)OCO5 | > 100 µM (inactive) | > 100 µM (inactive) | > 100 µM (inactive) | > 100 µM (inactive) | > 100 µM (inactive) | > 100 µM (inactive) | > 100 µM (inactive) | > 100 µM (inactive) |  |  | > 100 µM (inactive) | > 100 µM (inactive) | > 100 µM (inactive) | > 100 µM (inactive) | > 100 µM (inactive) | > 100 µM (inactive) | > 100 µM (inactive) | > 100 µM (inactive) | > 100 µM (inactive) | > 100 µM (inactive)
11 | Cc1[nH]c2ncn(/N=C/c3ccccc3O)c(=N)c2c1Cc1ccccc1 | 37.2 µM (inactive) | 30.8 µM (inactive) | 91 µM (inactive) | 56.9 µM (inactive) | 30.2 µM (inactive) | 67 µM (inactive) |  | 54.2 µM (inactive) | > 100 µM (inactive) | > 100 µM (inactive) | 23.3 µM (inactive) | 30 µM (inactive) | > 100 µM (inactive) | 32.2 µM (inactive) | > 100 µM (inactive) |  | 43.1 µM (inactive) | 47.6 µM (inactive) | > 100 µM (inactive) | 
12 | O=C1CCC(c2ccccc2)=NN1c1nsc2ccccc12 | > 100 µM (inactive) | 60 µM (inactive) | 7.21 µM (inactive) | > 100 µM (inactive) | > 100 µM (inactive) | > 100 µM (inactive) |  | > 100 µM (inactive) | > 100 µM (inactive) | > 100 µM (inactive) | > 100 µM (inactive) | > 100 µM (inactive) | > 100 µM (inactive) | > 100 µM (inactive) | > 100 µM (inactive) |  | > 100 µM (inactive) | > 100 µM (inactive) | > 100 µM (inactive) | > 100 µM (inactive)
13 | CC(SC(=S)N1CCOCC1)C(=O)Nc1nnc(-c2ccc(Cl)cc2)o1 (centres undefined) | 50.6 µM (inactive) | 16.1 µM (inactive) | > 100 µM (inactive) | 79.8 µM (inactive) |  | 36.1 µM (inactive) |  | 51.2 µM (inactive) | 52 µM (inactive) | > 100 µM (inactive) | 31.8 µM (inactive) | 74.5 µM (inactive) | 40 µM (inactive) | 42.6 µM (inactive) | 38.4 µM (inactive) | > 100 µM (inactive) | 22.4 µM (inactive) | 36.9 µM (inactive) | 42.2 µM (inactive) | 31.6 µM (inactive)
14 | CCCCC1(N=[N+]=[N-])C(=O)c2cccc3c2N(CCC3)C1=O (centres undefined) | 69.2 µM (inactive) | > 100 µM (inactive) | > 100 µM (inactive) | > 100 µM (inactive) | > 100 µM (inactive) | > 100 µM (inactive) | > 100 µM (inactive) | > 100 µM (inactive) | > 100 µM (inactive) | > 100 µM (inactive) | > 100 µM (inactive) | > 100 µM (inactive) | > 100 µM (inactive) | > 100 µM (inactive) | > 100 µM (inactive) | > 100 µM (inactive) |  | > 100 µM (inactive) | > 100 µM (inactive) | > 100 µM (inactive)
15 | COc1cc([C@@H]2c3cc4c(cc3[C@@H](c3c(O)cc(O)c5c3O[C@H](c3ccc(O)c(O)c3)[C@@H](O)C5)[C@H]3COC(=O)[C@H]23)OCO4)cc(OC)c1O | > 100 µM (inactive) | 44 µM (inactive) |  | > 100 µM (inactive) | > 100 µM (inactive) | > 100 µM (inactive) | 43.6 µM (inactive) | > 100 µM (inactive) | > 100 µM (inactive) | > 100 µM (inactive) | > 100 µM (inactive) | 58.7 µM (inactive) | > 100 µM (inactive) | 58.9 µM (inactive) | > 100 µM (inactive) | > 100 µM (inactive) |  | > 100 µM (inactive) | > 100 µM (inactive) | 46.7 µM (inactive)
16 | COc1ccc(/C=N/n2c(C)nc3c(sc(=S)n3-c3ccccc3)c2=O)cc1 | 60.5 µM (inactive) | 34.4 µM (inactive) | 14.4 µM (inactive) | > 100 µM (inactive) | > 100 µM (inactive) |  | 21.4 µM (inactive) | > 100 µM (inactive) | 66.8 µM (inactive) |  |  | 47.3 µM (inactive) | 82.4 µM (inactive) | > 100 µM (inactive) | > 100 µM (inactive) |  | > 100 µM (inactive) | 37.2 µM (inactive) | > 100 µM (inactive) | > 100 µM (inactive)
